Read-outs that look alike come from different tables or passages of the source.
Assays:
[1] = tested on: Pancreatin; test: Pancreatin stability; assay type: in vitro ADME, porcine; settings: 1 % (w/v) pancreatin, 5 µM, pH 7.5, 37 °C, after 60 min
Protocol: (§1) Pancreatin Stability: Stability studies were conducted by incubating prodrug (5 µM) with 1 % (w/v) pancreatin (Sigma, P-1625, from porcine pancreas) in 0.025 M Tris buffer containing 0.5 M NaCl (pH 7.5) at 37 °C for 60 min. The reaction was stopped by addition of 2 volumes of methanol. After centrifugation at 14,000 rpm for 10 min, the supernatant was removed and analyzed by LC/MS/MS.

[2] = not given; remark: listed apart in the source
[3] = not given; remark: listed apart in the source
[4] = not given; remark: listed apart in the source
[5] = not given; remark: listed apart in the source
[6] = 5 µM
Protocol: For stability studies, prodrug (5 µM) was incubated in Caco-2 homogenate S9 fraction (0.5 mg protein per mL) for 60 min at 37°C. Concentrations of intact prodrug and released baclofen were determined at zero time and 60 minutes using LC/MS/MS.

[7] = tested on: Caco-2 cells; settings: human, Caco-2, 200 uM
Protocol: For example, cellular permeability may be evaluated by examining the flux of a prodrug across a cultured polarized cell monolayer (e.g., Caco-2 cells). Caco-2 cells obtained from continuous culture (passage less than 28) were seeded at high density onto Transwell polycarbonate filters. Cells were maintained with DMEM / 10% fetal calf serum + 0.1 mM nonessential amino acids + 2 mM L-Gln, 5% CO2/ / 95% O2, 37°C until the day of the experiment. Permeability studies were conducted at pH 6.5 apically (in 50 mM MES buffer containing 1 mM CaCl2, 1mM MgCl2, 150 mM NaCl, 3 mM KCl, 1 mM NaH2PO4, 5 mM glucose) and pH 7.4 basolaterally (in Hanks' balanced salt solution containing 10 mM HEPES) in the presence of efflux pump inhibitors (250 µM MK-571, 250 µM Verapamil, 1 mM Ofloxacin). Inserts were placed in 12 or 24 well plates containing buffer and incubated for 30 min at 37C°. Prodrug (200 µM) was added to the apical or basolateral compartment (donor) and concentrations of prodrug and/or released parent drug in the opposite compartment (receiver) were determined at intervals over 1 hour using LC/MS/MS. Values of apparent permeability (Papp) were calculated using the equation: Papp = Vr (dC/dt)//(ACo) [formula]
Here Vr is the volume of the receiver compartment in mL; dC/dt is the total flux ofprodrug and parent drug (µM/s), determined from the slope of the plot of concentration in the receiver compartment versus time; Co is the initial concentration of prodrug in µM; A is the surface area of the membrane in cm^2.

[8] = Pancreatin stability; assay type: in vitro ADME, porcine; settings: pig, pancreatin, pH 7.5; read-out: % of Prodrug Remaining
Protocol: as §1

[9] = physchem; settings: aqueous buffer
Protocol: The stabilities of prodrugs were evaluated in one or more in vitro systems using a variety of tissue preparations following methods known in the art. The chemical stability of prodrugs in aqueous buffers at pH's of 2.0, 7.4 and 8.0 were also measured. […] Each preparation was incubated with test compound at 37°C for one hour. Aliquots (50 µL) were removed at 0, 30, and 60 min and quenched with 0.1 % trifluoroacetic acid in acetonitrile.

[10] = Rat Plasma, 2.0 µM, 37°C, after 60 min, 60 min
[11] = Human Plasma, 2.0 µM, 37°C, after 60 min, 60 min
[12] = Rat Liver S9 (0.5 mg/mL), 2.0 µM, NADPH, 37°C, after 60 min, 60 min
[13] = Human Liver S9 (0.5 mg/mL), 2.0 µM, NADPH, 37°C, after 60 min, 60 min
[14] = Caco-2 S9 (0.5 mg protein per mL), 37°C, after 60 min, 60 min

Structure (SMILES) | % of Baclofen Released [1] | % of Prodrug Remaining [1] | % of Baclofen Released (aqueous buffer, 1 h, pH 2) | % of Prodrug Remaining (aqueous buffer, 1 h, pH 2) | % of Baclofen Released (aqueous buffer, 1 h, pH 7.4) | % of Prodrug Remaining (aqueous buffer, 1 h, pH 7.4) | % of Baclofen Released (aqueous buffer, 1 h, pH 8) | % of Prodrug Remaining (aqueous buffer, 1 h, pH 8) | % of Baclofen Released ([2]; rat, plasma, 1 h, 2 µM) | % of Prodrug Remaining ([2]; rat, plasma, 1 h, 2 µM) | % of Baclofen Released ([3]; human, plasma, 1 h, 2 µM) | % of Prodrug Remaining ([3]; human, plasma, 1 h, 2 µM) | % of Baclofen Released ([4]; rat, s9, 1 h, 2 µM) | % of Prodrug Remaining ([4]; rat, s9, 1 h, 2 µM) | % of Baclofen Released ([5]; human, s9, 1 h, 2 µM) | % of Prodrug Remaining ([5]; human, s9, 1 h, 2 µM) | % of Baclofen Released ([6]; human, s9, 1 h) | % of Prodrug Remaining ([6]; human, s9, 1 h) | Ratio A-BB-A [7] | other results
O=C([O-])C[C@@H](CNC(=O)OCOC(=O)c1ccccc1)c1ccc(Cl)cc1.[Na+] [(12), Sodium 4-[(Benzoyloxymethoxy)carbonylamino]-(3R)-(4-chlorophenyl)-butanoate] | 77% | 15% | 0% | 100% | 0% | 100% | 0% | 105% | 14% | 72% | 5% | 95% | 100% | 3% | 100% | 1% | 100% | 2% | 5.9 | –
CC(C)(C)C(=O)OCOC(=O)NC[C@H](CC(=O)[O-])c1ccc(Cl)cc1.[Na+] [(20), Sodium 4-[(Pivaloyloxymethoxy)carbonylamino]-(3R)-(4-chlorophenyl)-butanoate] | 36% | 58% | 0% | 100% | 0% | 100% | 0% | 103% | 8% | 92% | 9% | 82% | 75% | 25% | 100% | 1% | 100% | 1% | 11.8 | –
CCOC(C)(OCC)C(=O)OCOC(=O)NC[C@H](CC(=O)[O-])c1ccc(Cl)cc1.[Na+] [(51), Sodium 4-[(2,2-Diethoxypropanoyloxymethoxy)carbonylamino]-(3R)-(4-chlorophenyl)-butanoate] | 50% | 44% | 0% | 100% | 2% | 97% | 9% | 91% | 72% | 31% | 50% | 53% | 103% | 2% | 91% | 6% | 100% | 3% | 3.0 | –
CC(C)C(=O)O[C@@H](OC(=O)NC[C@H](CC(=O)O)c1ccc(Cl)cc1)C(C)C [(104), 4-{[(1S)-Isobutanoyloxyisobutoxy]carbonylamino}-(3R)-(4-chlorophenyl) -butanoic Acid] | – | – | – | – | – | – | – | – | – | – | – | – | – | – | – | – | – | – | – | remaining at 1 h, 5 µM [8]: 90%; % of Prodrug Remaining (aqueous buffer pH 7.4, 37°C, after 60 min, 60 min): 100%; % of Baclofen Released (aqueous buffer pH 8.0, 37°C, after 60 min, 60 min): 0%; % of Prodrug Remaining (aqueous buffer, pH 2, 60 min): 100/0%; % of Prodrug Remaining (aqueous buffer, pH 8, 60 min): 100/0%; % of Baclofen Released [2, 10]: 85%; % of Prodrug Remaining [2, 10]: 14%; % of Baclofen Released [3, 11]: 2%; % of Prodrug Remaining [3, 11]: 98%; % of Baclofen Released [4, 12]: 97%; % of Prodrug Remaining [4, 12]: 3%; % of Baclofen Released [5, 13]: 97%; % of Prodrug Remaining [5, 13]: 3%; % of Baclofen Released [6, 14]: 83%; % of Prodrug Remaining [6, 14]: 17%; degraded at 1 h ([9]; pH 2, % of Baclofen Released): 0%; degraded at 1 h ([9]; pH 7.4, % of Baclofen Released): 0%

— patent EP1660440B1, “ACYLOXYALKYL CARBAMATE PRODRUGS, METHODS OF SYNTHESIS AND USE” (priority 2003, dated 2005)
